Results: patent EP4467535A1, “LACTAM PESTICIDAL COMPOUNDS” (priority 2023, dated 2024)

Key:
Type in all cases: in vivo
[1] = system: Tobacco budworm (Heliothis virescens); test: Action on Tobacco budworm (Heliothis virescens), 96-well microtiter plate insect diet test; settings: 120 h, egg and larval mortality visually assessed after 5 days, read-out: mortality in comparison with untreated controls
Method: Example B5: Action on Tobacco budworm (Heliothis virescens)
For evaluating control of tobacco budworm (Heliothis virescens) the test unit consisted of 96-well-microtiter plates containing an insect diet and 15-25 H. virescens eggs.
The compounds were formulated using a solution containing 75% v/v water and 25% v/v DMSO. Different concentrations of formulated compounds were sprayed onto the insect diet at 10 µl, using a custom-built micro atomizer, at two replications.
After application, microtiter plates were incubated at about 28 + 1°C and about 80 + 5 % relative humidity for 5 days. Egg and larval mortality were then visually assessed.

[2] = system: Orchid thrips (Dichromothrips corbetti); test: Action on Orchid thrips (Dichromothrips corbetti), floral-immersion technique; settings: adult thrips on dipped orchid petals, 72 hours after treatment, read-out: mortality in comparison with untreated controls
Method: Example B2: Action on Orchid thrips (Dichromothrips corbetti)
Dichromothrips corbetti adults used for bioassay were obtained from a colony maintained continuously under laboratory conditions. For testing purposes, the test compound is diluted in a 1:1 mixture of acetone:water (vol:vol), plus Kinetic® HV at a rate of 0.01% v/v.
Thrips potency of each compound was evaluated by using a floral-immersion technique. All petals of individual, intact orchid flowers were dipped into treatment solution and allowed to dryin Petri dishes. Treated petals were placed into individual re-sealable plastic along with about 20 adult thrips. All test arenas were held under continuous light and a temperature of about 28°C for duration of the assay. After 3 days, the numbers of live thrips were counted on each petal. The percent mortality was recorded 72 hours after treatment.

[3] = system: Diamond back moth (Plutella xylostella); test: Action on Diamond back moth (Plutella xylostella), cabbage leaf dip test; settings: foliar, third instar larvae on dipped cabbage leaves, 72 hours after treatment, read-out: mortality in comparison with untreated controls
Method: Example B6: Action on Diamond back moth (Plutella xylostella)
The active compound is dissolved at the desired concentration in a mixture of 1:1 (v/v) distilled water: acetone. Surfactant (Kinetic® HV) is added at a rate of 0.01% (v/v). The test solution is prepared at the day of use.
Leaves of cabbage were dipped in test solution and air-dried. Treated leaves were placed in petri dishes lined with moist filter paper and inoculated with ten third instar larvae. Mortality was recorded 72 hours after treatment. Feeding damages were also recorded using a scale of 0-100%.

[4] = system: Southern armyworm (Spodoptera eridania), second instar larvae; test: Action on Southern armyworm (Spodoptera eridania), sprayed lima bean plants; settings: 96 h, 4 days after treatment, read-out: mortality in comparison with untreated controls
Method: Example B7: Action on Southern armyworm (Spodoptera eridania), second instar larvae
The active compounds were formulated by a Tecan liquid handler in 100% cyclohexanone as a 10,000 ppm solution supplied in tubes. The 10,000 ppm solution was serially diluted in 100% cyclohexanone to make interim solutions. These served as stock solutions for which final dilutions were made by the Tecan in 50% acetone:50% water (v/v) into 10 or 20 mL glass vials. A nonionic surfactant (Kinetic®) was included in the solution at a volume of 0.01% (v/v). The vials were then inserted into an automated electrostatic sprayer equipped with an atomizing nozzle for application to plants/insects.
Lima bean plants (variety Sieva) were grown 2 plants to a pot and selected for treatment at the 1st true leaf stage. Test solutions were sprayed onto the foliage by an automated electrostatic plant sprayer equipped with an atomizing spray nozzle. The plants were dried in the sprayer fume hood and then removed from the sprayer. Each pot was placed into perforated plastic bags with a zip closure. About 10 to 11 armyworm larvae were placed into the bag and the bags zipped closed. Test plants were maintained in a growth room at about 25°C and about 20-40% relative humidity for 4 days, avoiding direct exposure to fluorescent light (24 hour photoperiod) to prevent trapping of heat inside the bags. Mortality and reduced feeding were assessed 4 days after treatment, compared to untreated control plants.

[5] = system: Yellow fever mosquito (Aedes aegypti); test: whole plant or invertebrate; settings: 48 h, larval mortality visually assessed after 2 days at 28 ± 1°C, read-out: mortality in comparison with untreated controls
Method: Example B1: Action on Yellow fever mosquito (Aedes aegypti)
For evaluating control of yellow fever mosquito (Aedes aegypti) the test unit consisted of 96-well-microtiter plates containing 200µL of tap water per well and 5-15 freshly hatched A. aegypti larvae.
The active compounds or mixtures were formulated using a solution containing 75% (v/v) water and 25% (v/v) DMSO. Different concentrations of formulated compounds or mixtures were sprayed onto the insect diet at 2.5µL, using a custom-built micro atomizer, at two replications.
For experimental mixtures in these tests identical volumes of both mixing partners at the desired concentrations respectively, were mixed together.
After application, microtiter plates were incubated at 28 ± 1°C, 80 ± 5 % relative humidity for 2 days. Larval mortality was then visually assessed.

[6] = system: Boll weevil (Anthonomus grandis); test: Action on Boll weevil (Anthonomus grandis), 96-well microtiter plate insect diet test; settings: 120 h, egg and larval mortality visually assessed after 5 days, read-out: mortality in comparison with untreated controls
Method: Example B3: Action on Boll weevil (Anthonomus grandis )
For evaluating control of boll weevil (Anthonomus grandis) the test unit consisted of 96-well-microtiter plates containing an insect diet and 5-10 A. grandis eggs.
The compounds were formulated using a solution containing 75% (v/v) water and 25% (v/v) DMSO. Different concentrations of formulated compounds were sprayed onto the insect diet at 5 µL, using a custom-built micro atomizer, at two replications.
After application, microtiter plates were incubated at about 25 + 1°C and about 75 + 5 % relative humidity for 5 days. Egg and larval mortality were then visually assessed.

[7] = system: Diamond back moth (Plutella xylostella); test: Action on Diamond back moth (Plutella xylostella), 96-well microtiter plate insect diet test; settings: 120 h, read-out: mortality in comparison with untreated controls
Method: Example B8: Action on Diamond back moth (Plutella xylostella)
For evaluating control of diamond back moth (Plutella xylostella) the test unit consisted of 96-well-microtiter plates containing an insect diet and 15-25 P. xylostella eggs. The compounds or mixtures were formulated using a solution containing 75% water and 25% DMSO. Different concentrations of formulated compounds or mixtures were sprayed onto the insect diet at 5µl, using a custom-built micro atomizer, at two replications. For experimental mixtures in these tests identical volumes of both mixing partners at the desired concentrations respectively, were mixed together. After application, microtiter plates were incubated at 28 ± 1°C, 80 ± 5 % relative humidity for 5 days. Egg and larval mortality was then visually assessed.

Question: Which mortality at 800 ppm [1] does the source give for `Cc1ccc(C(C)C)c(NC(=S)N/N=C/c2ccc(-c3nn(C)c(N4Cc5cc(OC(F)(F)F)ccc5C4=O)c3C)cc2)c1` [C-1, 1-[(E)-[4-[1,4-dimethyl-5-[1-oxo-5-(trifluoromethoxy)isoindolin-2-yl]pyrazol-3-yl]phenyl]methyleneamino]-3-(2-isopropyl-5-methyl-phenyl)thiourea] here?
Answer: ≥ 75%

Question: And the mortality at 300 ppm [2]?
Answer: ≥ 75%

Question: What about the mortality at 300 ppm [3] of the same molecule?
Answer: ≥ 75%

Question: What about the mortality at 300 ppm [4] of the same molecule?
Answer: ≥ 75%

Question: What about the mortality at 800 ppm [5] of the same molecule?
Answer: ≥ 50%

Question: And the mortality at 800 ppm [6]?
Answer: ≥ 75%

Question: How did the mortality at 800 ppm [1] turn out when `Cc1ccc(C(C)C)c(N/C(=N/N=C/c2ccc(-c3nn(C)c(N4Cc5cc(OC(F)(F)F)ccc5C4=O)c3C)cc2)SCOC(=O)C(C)C)c1` [C-3, [(Z)-N'-[(E)-[4-[1,4-dimethyl-5-[1-oxo-5-(trifluoromethoxy)isoindolin-2-yl]pyrazol-3-yl]phenyl]methyleneamino]-N-(2-isopropyl-5-methyl-phenyl)carbamimidoyl]sulfanylmethyl 2-methylpropanoate] was run?
Answer: ≥ 75%

Question: What about the mortality at 300 ppm [2] of the same molecule?
Answer: ≥ 75%

Question: What about the mortality at 800 ppm [7] of the same molecule?
Answer: ≥ 75%

Question: And the mortality at 300 ppm [4]?
Answer: ≥ 75%

Question: And the mortality at 800 ppm [5]?
Answer: ≥ 50%

Question: What about the mortality at 800 ppm [6] of the same molecule?
Answer: ≥ 75%

Question: With `CCOC(=O)OCS/C(=N\N=C\c1ccc(-c2nn(C)c(N3Cc4cc(OC(F)(F)F)ccc4C3=O)c2C)cc1)Nc1cc(C)ccc1C(C)C` [C-4, [(Z)-N'-[(E)-[4-[1,4-dimethyl-5-[1-oxo-5-(trifluoromethoxy)isoindolin-2-yl]pyrazol-3-yl]phenyl]methyleneamino]-N-(2-isopropyl-5-methyl-phenyl)carbamimidoyl]sulfanylmethyl ethyl carbonate] as the molecule, how does the mortality at 800 ppm [1] read?
Answer: ≥ 75%

Question: What about the mortality at 300 ppm [2] of the same molecule?
Answer: ≥ 75%

Question: What about the mortality at 800 ppm [7] of the same molecule?
Answer: ≥ 75%

Question: What about the mortality at 300 ppm [4] of the same molecule?
Answer: ≥ 75%

Question: And the mortality at 800 ppm [5]?
Answer: ≥ 50%

Question: And the mortality at 800 ppm [6]?
Answer: ≥ 75%

Question: With `Cc1ccc(C(C)C)c(NC(=S)N/N=C/c2ccc(-c3nn(C)c(N4CCc5cc(OC(F)(F)F)ccc5C4=O)c3C)cc2)c1` [C-7, 1-[(E)-[4-[1,4-dimethyl-5-[1-oxo-6-(trifluoromethoxy)-3,4-dihydroisoquinolin-2-yl]pyrazol-3-yl]phenyl]methyleneamino]-3-(2-isopropyl-5-methyl-phenyl)thiourea] as the molecule, how does the mortality at 800 ppm [1] read?
Answer: ≥ 75%

Question: And the mortality at 300 ppm [2]?
Answer: ≥ 75%

Question: What about the mortality at 800 ppm [7] of the same molecule?
Answer: ≥ 75%

Question: And the mortality at 300 ppm [4]?
Answer: ≥ 75%

Question: And the mortality at 800 ppm [5]?
Answer: ≥ 50%

Question: And the mortality at 800 ppm [6]?
Answer: ≥ 75%

Question: `Cc1ccc(C(C)C)c(N2C(=O)CS/C2=N\N=C\c2ccc(-c3nn(C)c(N4CCc5cc(OC(F)(F)F)ccc5C4=O)c3C)cc2)c1` [C-8, (2Z)-2-[(E)-[4-[1,4-dimethyl-5-[1-oxo-6-(trifluoromethoxy)-3,4-dihydroisoquinolin-2-yl]pyrazol-3-yl]phenyl]methylenehydrazono]-3-(2-isopropyl-5-methyl-phenyl)thiazolidin-4-one] was tested. Which mortality at 800 ppm [1] did it give?
Answer: ≥ 75%

Question: What about the mortality at 300 ppm [2] of the same molecule?
Answer: ≥ 75%

Question: And the mortality at 300 ppm [3]?
Answer: ≥ 75%

Question: And the mortality at 300 ppm [4]?
Answer: ≥ 75%

Question: What about the mortality at 800 ppm [5] of the same molecule?
Answer: ≥ 50%

Question: And the mortality at 800 ppm [6]?
Answer: ≥ 75%

Question: What does the source list for `Cc1ccc(C(C)C)c(N2C(=O)CS/C2=N\C(=O)Nc2ccc(-c3nn(C)c(N4CCc5cc(OC(F)(F)F)ccc5C4=O)c3C)cc2)c1` [C-11, (3Z)-1-[4-[1,4-dimethyl-5-[1-oxo-6-(trifluoromethoxy)-3,4-dihydroisoquinolin-2-yl]pyrazol-3-yl]phenyl]-3-[3-(2-isopropyl-5-methyl-phenyl)-4-oxo-thiazolidin-2-ylidene]urea]?
Answer: mortality at 800 ppm [1]: ≥ 75%; mortality at 300 ppm [2]: ≥ 75%; mortality at 300 ppm [3]: ≥ 75%; mortality at 300 ppm [4]: ≥ 75%; mortality at 800 ppm [5]: ≥ 50%; mortality at 800 ppm [6]: ≥ 75%

Question: What does the source list for `Cc1ccc(C(C)C)c(N2C(=O)CS/C2=N\C(=O)Nc2ccc(-c3nn(C)c(N4CCc5cc(OC(F)(F)F)ccc5C4=O)c3C)cc2Cl)c1` [C-12, (3Z)-1-[2-chloro-4-[1,4-dimethyl-5-[1-oxo-6-(trifluoromethoxy)-3,4-dihydroisoquinolin-2-yl]pyrazol-3-yl]phenyl]-3-[3-(2-isopropyl-5-methyl-phenyl)-4-oxo-thiazolidin-2-ylidene] urea]?
Answer: mortality at 800 ppm [1]: ≥ 75%; mortality at 300 ppm [2]: ≥ 75%; mortality at 300 ppm [3]: ≥ 75%; mortality at 300 ppm [4]: ≥ 75%; mortality at 800 ppm [5]: ≥ 50%; mortality at 800 ppm [6]: ≥ 75%
